Data as given in patent US7888357B2, “Anti-inflammatory and protein kinase inhibitor compositions and related methods for downregulation of detrimental cellular responses and inhibition of cell death” (Northwestern University, priority 2001, dated 2011).

Experiments:
rats = test: Organ histology after high dose injections; assay type: in vivo, rat; conditions: after high dose injections into rats (data not shown)
cell culture = test: Cytotoxicity in cell culture; assay type: cell-based; conditions: over the entire dose range of inhibitor
Excerpt: The inhibition of iNOS and IL-1β production by MW01-070C, however, is not limited to LPS stimulation. […] The rationale for examination of Aβ stimulation is its involvement as an initiating event in models of AD initiation and progression. The stimulation by Aβ is seen (FIG. 6) with preparations of the Aβ peptide (see Experimental Procedures) that are known to have neurotoxic activity [Hu, J., Akama, K. T., Krafft, G. A., Chromy, B. A., and Van Eldik, L. J. (1998) Brain Res. 785, 195-206; Lambert, M. P. Barlow, A. K., Chromy, B. A., Edwards, C., Freed, R., Liosatos, M., Morgan, T. E., Rozovsky, I., Trommer, B., Viola, K. L., Wals, P., Zhang, C., Finch, C. E., Kraffk, G. A., and Klein, W. L. (1998) Proc. Natl. Acad. Sci. USA 95, 6448-6453]. The rationale for examination of S100 stimulation is its presence as an astrocyte protein that can function as an autocrine and paracrine cytokine, and its increased production in AD and other neuroinflammatory related disorders [Griffin, W. S. T., Stanley, L. C., Ling, C., White, L., MacLeod, V., Perrot, L. J., White, C. L., III, and Araoz, C. (1989) Proc. Natl. Acad. Sci. USA 86, 7611-7615; Hu, J., Castets, F., Guevara, J. L., and Van Eldik, L. J. (1996) J. Biol. Chem. 271, 2543-2547; Donato, R. (1999) Biochim. Biophys. Acta 1450, 191-231; Van Eldik, L. J., and Griffin, W. S. T. (1994) Biochim. Biophys. Acta 1223, 398-403]. […]

protein kinase A (PKA) = target: T1, protein kinase A (PKA) (Bos taurus, UniProt P00517); test: Reconstituted enzyme assay, PKA; assay type: biochemical, bovine; conditions: γ-[32P]-ATP, synthetic peptide substrate
T1 construct: bovine heart PKA from Promega; purchased Promega; host or cells: bovine heart
Protocol: [table] […] The rationale for using BV-2 cells in high throughput screening was the paucity of well-characterized human microglial cell lines, and the relevant activation responses and signaling pathways reflect those seen in human and rodent primary microglial cultures. Compounds were tested for their effects on NO accumulation in conditioned media of LPS-stimulated BV-2 cells by measurement of nitrite production by the Griess assay as a read-out for iNOS activity, as described previously. Stock solutions of compounds were prepared in dimethylsulfoxide (DMSO) or in water. When stock solutions were prepared in DMSO, control wells contained the same final concentration of DMSO as the compound-containing wells. […] Solutions of compounds for cell treatments were diluted to a 10× final concentration by dilution of stock solutions in αMEM media. […] Reconstituted enzyme assays were done as described s. The sources of protein kinases were: bovine heart PKA from Promega, rat brain PKC from Calbiochem, rat CaMKII from New England Biolabs, chicken gizzard MLCK prepared as described, and a p38 MAP kinase kit containing recombinant Xenopus p38-MAPK and its human substrate from Upstate Biotechnology. […]

BV-2 cells = test: Western blot of transcription factor and kinase phosphorylation in LPS-treated BV-2 cells; assay type: cell-based, murine; conditions: compound 10 μM
Protocol: FIG. 2. Selective effects of compound 1 (MW01-070C) on glial activation responses and gene-regulating protein kinase pathways. BV-2 cells and rat astrocytes were treated with control buffer (C) or stimulated with LPS or Aβ1-42 peptide in the presence or absence of compound 1, and cell lysates were analyzed by Western blots. (A) Astrocytes treated with LPS and compound 1 show concentration-dependent inhibition of iNOS and IL-1β production but not GFAP. (B) Astrocytes treated with A β1-42 and compound 1 (10 μM) show inhibition of iNOS and IL-1β but not apoE and COX-2. (C) BV-2 cells treated with LPS and compound 1 (10 μM) show inhibition of phosphorylated (p-) CREB but not p-p38 and p-ATF2, as assayed with antibodies that are specific for the phosphorylated forms of the proteins. Data are expressed as percent control (mean±SD; n=3 determinations).
FIG. 7. Effects of MW01-070C on phosphorylation of transcription factors and an upstream activating kinase. BV-2 cells were incubated for 4 hr with control buffer (lane 1), 500 ng/ml LPS (lane 2), or […] LPS+10 μM MW01-070C (lane 3). The levels of phosphorylated (p-) ATF2, p38, and CREB were determined by Western blot of cell lysates, using antibodies that are specific for the phosphorylated forms of these proteins.
For analysis of transcription factor phosphorylation, BV-2 cells were plated at 2×10^5 cells/well in a 12-well tissue culture plate, and grown for 48 hrs in αMEM containing 10% FBS. Immediately before treatment, media was removed, cells were rinsed with PBS, and media changed to serum-free αMEM. Cells were then treated for 4 hrs with control buffer or LPS (500 ng/ml) in the presence or absence of MW01-070C (10 μM), and cell lysates harvested for Western blot analysis.
Cell lysates were prepared and Western blots were done as previously described [Petrova, T. V., Akama, K. T., and Van Eldik, L. J. (1999) Proc Natl Acad Sci USA 96, 4668-4673] using equal volumes of cell extracts per gel lane. The following antibodies were used: monoclonal anti-iNOS (1:1000 dilution, Transduction Labs); polyclonal anti-rat IL-1β (1:1000 dilution, R&D Systems, Inc.); monoclonal anti-glial fibrillary acidic protein (GFAP) (1:[…] dilution, Sigma); polyclonal anti-rat apoE (1:15,000 dilution) prepared as described [LaDu, M. J., Shah, J. A., Reardon, K., Getz, G. S., Bu, G., Hu, J., Guo, L., and Van Eldik, L. J. (2000) J. Biol. Chem. 275, 33974-33980]; polyclonal anti-COX-2 (1:500 dilution) and monoclonal anti-phosphoATF2 (1:1000 dilution) from Santa Cruz Biotechnology; polyclonal anti-phosphoCREB (1:1000 dilution), polyclonal anti-phosphop38 MAPK (1:1000 dilution), polyclonal anti-phosphop90RSK (1:1000 dilution), and monoclonal anti-phosphoERK1/2 (1:1000 dilution) from Cell Signaling.

Question: Which “liver, kidney or brain damage based on histology” value (rats) does the source give for `N=c1cc2c(nn1CCCCCCCCCCC(=O)N1CCN(c3ncccn3)CC1)-c1ccccc1CC2` [MW01-070C] here?
Answer: no major liver, kidney or brain damage

Question: And the “cytotoxicity in cell culture” value (cell culture)?
Answer: no evidence of cytotoxicity

Question: What about the IC50 (protein kinase A (PKA)) of the same molecule?
Answer: > 100 µM

Question: And the “phosphorylated ATF2” value (BV-2 cells)?
Answer: does not inhibit

Question: What about the “phosphorylated p38 MAPK” value (BV-2 cells) of the same molecule?
Answer: not blocked

Question: What about the “phosphorylation of CREB” value (BV-2 cells) of the same molecule?
Answer: inhibited

Question: And the “phosphorylated p38 MAPK” value (BV-2 cells; listed as 1)?
Answer: does not inhibit

Question: What about the “phosphorylation of CREB” value (BV-2 cells; listed as 1) of the same molecule?
Answer: inhibits
